Assay results published in patent US20200179245A1, “HIGH EFFICIENCY SUNSCREEN COMPOSITION” (Deckner Consulting Services, LLC, priority 2015, published 2020).
Read-outs that look alike come from different tables or passages of the source.

Key:
[1] = In vitro open chamber Franz diffusion cell penetration test; type: in vitro ADME; conditions: Strat-M membrane, 37° C.
Method: The Test sample was Barsoleil OMC-60 with a purity of 61.95%. The control sample was Octyl Methoxycinnamate with a purity of 100%. The samples were applied to a Strat-M membrane for testing using 5 skin preparations. A 6-cell semiautomatic Franz cell setup was used for all diffusion experiments. (Franz cell Diffusion is a standard in vitro method used for penetration). Circulating water baths were set to 37° C.±0.5° C. Strat-M synthetic membrane was used in place of cadaver skin. The Strat-M® membrane was placed between the donor and receptor compartments of the Franz cells. The available open area between donor and receptor compartments measured 0.635 cm2. The compartments were clamped together, ensuring that the shiny side of the membrane was facing the donor compartment. 1 mL of the test and control samples were used and placed in the donor chamber. The receptor compartment was filled with 0.9% saline:methanol (50:50) buffer. When the receptor solution reached 37° C., the sample was added to the donor compartment. An aliquot of each sample was removed from the receptor compartment at times T=0, 2, 4, 6 and 8 hours.
The dose of the receptor phase was analyzed by HPLC, and the amount of release per unit area (μg/cm2) was plotted against the square of time and the slope was the transdermal release rate. (See FIG. 3, control sample 20, test sample 30).

[2] = human skin, cited from earlier work

## CCCCC(CC)COC(=O)C=Cc1ccc(OC)cc1 (stereo not shown) [OMC, Octyl Methoxycinnamate]
[1]; penetration time 0 hrs
  Cumulative C: 0 μg/cm^2
[1]; penetration time 2 hrs
  Cumulative C: 16.7 μg/cm^2
[1]; penetration time 4 hrs
  Cumulative C: 55.2 μg/cm^2
[1]; penetration time 6 hrs
  Cumulative C: 96.5 μg/cm^2
[1]; penetration time 8 hrs
  Cumulative C: 144.9 μg/cm^2

## CCCCC(CC)COC(=O)/C=C/c1ccc(OC)cc1 (stereo not shown) [OMC-free]
[2]; oil in water emulsion
  in vitro skin penetration rate / skin accumulation: 127.8 μg/cm^2
[2]; water in oil emulsion
  in vitro skin penetration rate / skin accumulation: 172.1±12.9 μg/cm^2
